In US20240148821A1, “PHARMACEUTICAL USE OF CYCLIC PEPTIDE COMPOUND” (CHUGAI SEIYAKU KABUSHIKI KAISHA, priority 2021, published 2024) one finds IC50 data, which are given here for nine molecules.

SMILES strings stand for the structures. Numbered stars: 1 amine (or outer) side, 2 acyl side, 3 side chain; on linkers, the order of the positions; unused ones are H or OH. Bridge positions count the residues as written; N and C are the ends. Square brackets hold non-standard residues; d marks the D form. Peptide text beside a SMILES is read from it. * marks the point of attachment. hPhe(3-Cl-4-CF3) = N[C@@H](CCc1ccc(C(F)(F)F)c(Cl)c1)C(=O)O; NMePhe(4-CF3) = CN[C@@H](Cc1ccc(C(F)(F)F)cc1)C(=O)O; hPhe(4-CF3) = N[C@@H](CCc1ccc(C(F)(F)F)cc1)C(=O)O; NMePhe(4-Cl) = CN[C@@H](Cc1ccc(Cl)cc1)C(=O)O; X110 = Cc1ccc(I)cc1C[C@H](N[*:1])C(=O)[*:2]; NMePhe(3-F) = CN[C@@H](Cc1cccc(F)c1)C(=O)O; NMedβ3hAla = C[C@H](CC(=O)[*:2])N(C)[*:1]; NMePhe(2-F) = CN[C@@H](Cc1ccccc1F)C(=O)O; NMeGly(cPent) = CN[C@H](C(=O)O)C1CCCC1; Phe(3-I) = N[C@@H](Cc1cccc(I)c1)C(=O)O; NMeY = CN[C@@H](Cc1ccc(O)cc1)C(=O)O; NMeCha = CN[C@@H](CC1CCCCC1)C(=O)O; NMeChg = CN[C@H](C(=O)O)C1CCCCC1; NMeI = CC[C@H](C)[C@H](NC)C(=O)O; NMeD = CN[C@@H](CC(=O)O)C(=O)O; CH2CONHtBu = CC(C)(C)NC(=O)C*; NMeL = CN[C@@H](CC(C)C)C(=O)O; NMeV = CN[C@H](C(=O)O)C(C)C; d(β3hA) = C[C@@H](N)CC(=O)O; NMeAbu = CC[C@H](NC)C(=O)O; NMeS = CN[C@@H](CO)C(=O)O; NMeA = CN[C@@H](C)C(=O)O; NMeAib = CNC(C)(C)C(=O)O; Nle = CCCC[C@H](N)C(=O)O; Piperidide = C1CCN(*)CC1; Pra = C#CC[C@H](N)C(=O)O; Ac5c = NC1(C(=O)O)CCCC1; Aze = O=C(O)[C@@H]1CCN1; Aib = CC(C)(N)C(=O)O; Isopentyl = CC(C)CC*; CF3 = FC(F)(F)*; Sar = CNCC(=O)O

For this test, the system named is Human pancreatic cancer cell line AsPC-1 (G12D mutation Kras). Put plainly: AsPC-1 cell growth inhibition (AsPC-1 CGI). It counts as cell-based. The note with it: read-out: AsPC-1 cell growth inhibition, 50% growth inhibitory concentration (IC50 value); 96 hours, CellTiter-Glo, values classified in ranges. For orientation: In ATP-based viability assays light output follows the ATP content of the culture.
Procedure: Test compounds were serially dilated with dimethyl sulfoxide, and 200 nL was then dispensed to a U-bottom 96-well plate using Labcyte Echo. […] The cell suspension was dispensed to a. plate containing a test compound at 100 μL per well and incubated at 37° C. in a 5% carbon dioxide gas incubator. 96 hours later, 80 μL of CellTiter-Glo (Promega) was added to each well and fluorescence was measured.
In the case of `COC[C@@H]1NC(=O)[C@H](CC(C)C)N(C)C(=O)C[C@@H](C(=O)N2CCCCC2)N(C)C(=O)[C@H](C2CCCCC2)N(C)C(=O)C2(CCCC2)NC(=O)[C@@H]2CCCN2C(=O)[C@H](CCc2ccc(C(F)(F)F)c(Cl)c2)NC(=O)CN(C)C(=O)[C@H](CC2CCCCC2)N(C)C(=O)CN(C)C(=O)CN(C)C1=O` [Compound 148] ([NMeL]S(Me)[Sar][Sar][NMeCha][Sar][hPhe(3-Cl-4-CF3)]P[Ac5c][NMeChg][NMeD]-Piperidide; lactam N-11), the IC50 was over 500 nM.
`CCCC[C@@H]1NC(=O)[C@H](Cc2cc(I)ccc2C)NC(=O)CN(C)C(=O)[C@H](Cc2ccc(OC)cc2)N(C)C(=O)[C@@H]2CCN2C(=O)[C@H](C)N(C)C(=O)[C@H]([C@@H](C)CC)NC(=O)[C@H](CC)N(C)C(=O)C[C@@H](C(=O)N2CCCCC2)N(C)C(=O)[C@H](CC(C)C)NC(=O)C(C)(C)N(C)C1=O` [Compound 1358] ([NMeAbu]I[NMeA][Aze][NMeY](Me)[Sar][X110][Nle][NMeAib]L[NMeD]-Piperidide; lactam N-11): the IC50 is over 500 nM.
With `CC[C@H](C)[C@@H]1NC(=O)[C@H](C)N(C)C(=O)C[C@@H](C)N(C)C(=O)[C@H](C2CCCCC2)N(C)C(=O)C2(CCCC2)NC(=O)[C@@H]2CCCN2C(=O)[C@H](CCc2ccc(C(F)(F)F)c(Cl)c2)NC(=O)CN(C)C(=O)[C@H](CC2CCCCC2)N(C)C(=O)CN(C)C(=O)CN(C)C1=O` [Compound 1808] (cyclo([Ac5c][NMeChg][NMedβ3hAla][NMeA]I[Sar][Sar][NMeCha][Sar][hPhe(3-Cl-4-CF3)]P)), the IC50 is over 500 nM.
Take `C#CC[C@@H]1NC(=O)[C@H](Cc2cccc(I)c2)NC(=O)CN(C)C(=O)[C@H](Cc2ccc(OC(F)(F)F)cc2)N(C)C(=O)CN(C)C(=O)CN(C)C(=O)[C@H]([C@@H](C)CC)NC(=O)[C@H](CC(C)C)N(C)C(=O)C[C@@H](C(=O)N2CCCCC2)N(C)C(=O)[C@H](CC(C)C)NC(=O)C(C)(C)N(C)C1=O` [Compound 1219] ([NMeL]I[Sar][Sar][NMeY](CF3)[Sar][Phe(3-I)][Pra][NMeAib]L[NMeD]-Piperidide; lactam N-11): the IC50 was over 500 nM.
`CC[C@H](C)[C@@H]1NC(=O)[C@H](CC(C)C)N(C)C(=O)C[C@@H](C)NC(=O)[C@H](C(C)C)N(C)C(=O)C2(CCCC2)NC(=O)[C@@H]2CCCN2C(=O)[C@H](CCc2ccc(C(F)(F)F)c(Cl)c2)NC(=O)CN(C)C(=O)[C@H](CC2CCCCC2)N(C)C(=O)CN(C)C(=O)[C@@H]2CCCN2C1=O` [Compound 185] (cyclo([Ac5c][NMeV][d(β3hA)][NMeL]IP[Sar][NMeCha][Sar][hPhe(3-Cl-4-CF3)]P)): the IC50 is over 500 nM.
With `CC[C@H](C)[C@@H]1NC(=O)[C@H](CC(C)C)N(C)C(=O)C[C@@H](C(=O)N(C)C)N(C)C(=O)[C@H](C2CCCC2)N(C)C(=O)C2(CCCC2)NC(=O)[C@H](Cc2ccccc2F)N(C)C(=O)[C@H](CCc2ccc(C(F)(F)F)c(Cl)c2)NC(=O)CN(C)C(=O)[C@H](CC2CCCCC2)N(C)C(=O)[C@@H]2CCN2C(=O)[C@H](C)N(C)C1=O` [Compound 43] ([NMeL]I[NMeA][Aze][NMeCha][Sar][hPhe(3-Cl-4-CF3)][NMePhe(2-F)][Ac5c][NMeGly(cPent)][NMeD]-NMe2; lactam N-11) the figure was over 500 nM.
Consider `CC[C@H](C)[C@@H]1NC(=O)[C@H](CC(C)C)N(C)C(=O)C[C@@H](C(=O)N2CCCCC2)N(C)C(=O)[C@H](CC(C)C)N(C)C(=O)C(C)(C)NC(=O)[C@H](COCC(=O)NC(C)(C)C)N(C)C(=O)[C@H](CCc2ccc(C(F)(F)F)cc2)NC(=O)CN(C)C(=O)[C@H](COCCC(C)C)N(C)C(=O)CN(C)C(=O)CN(C)C1=O` [Compound 1502] ([NMeL]I[Sar][Sar][NMeS](Isopentyl)[Sar][hPhe(4-CF3)][NMeS](CH2CONHtBu)[Aib][NMeL][NMeD]-Piperidide; lactam N-11), for which the IC50 is over 500 nM.
With `CCCC[C@@H]1NC(=O)[C@H](Cc2cccc(I)c2)NC(=O)CN(C)C(=O)[C@H](Cc2ccc(Cl)cc2)N(C)C(=O)CN(C)C(=O)CN(C)C(=O)[C@H]([C@@H](C)CC)NC(=O)[C@H](CC(C)C)N(C)C(=O)C[C@@H](C(=O)N2CCCCC2)N(C)C(=O)[C@H](CC(C)C)NC(=O)[C@H](Cc2cccc(F)c2)N(C)C1=O` [Compound 483] ([NMeL]I[Sar][Sar][NMePhe(4-Cl)][Sar][Phe(3-I)][Nle][NMePhe(3-F)]L[NMeD]-Piperidide; lactam N-11) the figure was over 500 nM.
`CC[C@H](C)[C@@H]1NC(=O)[C@H](CC(C)C)N(C)C(=O)C[C@@H](C(=O)N2CCCCC2)N(C)C(=O)[C@H]([C@@H](C)CC)N(C)C(=O)C2(CCCC2)NC(=O)[C@@H]2CCCN2C(=O)[C@H](CCc2ccc(C(F)(F)F)c(Cl)c2)NC(=O)CN(C)C(=O)[C@H](Cc2ccc(C(F)(F)F)cc2)N(C)C(=O)[C@@H]2CCN2C(=O)[C@H](C)N(C)C1=O` [Compound 630] ([NMeL]I[NMeA][Aze][NMePhe(4-CF3)][Sar][hPhe(3-Cl-4-CF3)]P[Ac5c][NMeI][NMeD]-Piperidide; lactam N-11): the IC50 is at most 20 nM.
